# What was measured:
# Male Rats = experiment: Long Term Androgenic Activity in Male Rats; format: in vivo, rat
# [1] = biological target: T1, androgen receptor from rat ventral prostate (Rattus norvegicus, UniProt P15207); experiment: Androgen RBA: relative binding to androgen receptor; conditions: Dihydrotestosterone = 100
# T1 construct: androgen receptor from rat ventral prostate; from tissue; host or cells: rat ventral prostate
# T1 sequence (P15207 1-902): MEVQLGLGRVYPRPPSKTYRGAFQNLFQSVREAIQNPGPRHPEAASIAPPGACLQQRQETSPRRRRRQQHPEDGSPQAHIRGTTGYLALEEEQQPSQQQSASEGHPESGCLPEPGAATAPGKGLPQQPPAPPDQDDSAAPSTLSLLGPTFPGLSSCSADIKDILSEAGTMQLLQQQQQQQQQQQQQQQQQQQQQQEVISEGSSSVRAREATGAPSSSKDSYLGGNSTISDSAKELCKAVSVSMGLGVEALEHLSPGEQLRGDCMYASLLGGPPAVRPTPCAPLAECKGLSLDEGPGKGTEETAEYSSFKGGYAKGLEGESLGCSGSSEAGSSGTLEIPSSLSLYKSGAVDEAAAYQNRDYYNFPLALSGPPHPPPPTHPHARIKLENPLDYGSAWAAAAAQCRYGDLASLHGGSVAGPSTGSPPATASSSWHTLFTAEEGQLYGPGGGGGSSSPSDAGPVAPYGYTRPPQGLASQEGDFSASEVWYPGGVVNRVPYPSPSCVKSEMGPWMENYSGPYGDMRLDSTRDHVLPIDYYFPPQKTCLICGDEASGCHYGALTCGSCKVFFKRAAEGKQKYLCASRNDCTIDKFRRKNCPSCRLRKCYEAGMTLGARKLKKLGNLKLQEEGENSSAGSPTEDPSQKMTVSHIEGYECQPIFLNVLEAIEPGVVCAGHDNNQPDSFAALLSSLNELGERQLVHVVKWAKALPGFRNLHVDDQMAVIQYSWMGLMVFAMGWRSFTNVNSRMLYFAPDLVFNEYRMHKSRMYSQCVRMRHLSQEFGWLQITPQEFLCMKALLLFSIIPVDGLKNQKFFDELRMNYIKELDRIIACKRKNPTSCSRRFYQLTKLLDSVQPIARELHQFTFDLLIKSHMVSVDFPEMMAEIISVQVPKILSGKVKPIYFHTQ
# [2] = tested on: immature castrated male rats; experiment: Androgenic Activity, subcutaneous administration to immature castrated male rats; format: in vivo, rat; conditions: for Androgenic Activity, Levator Ani / Androgenic Activity, Seminal Vesicles / Androgenic Activity, Ventral Prostate: subcutaneous, Testosterone = 100
# Experimental: Androgenic Activity was also evaluated using subcutaneous administration to immature castrated male rats (Testosterone=100).
# immature female rats = experiment: Estrogenic Activity, subcutaneous administration to immature female rats; format: in vivo, rat; conditions: Estradiol = 100
# Experimental: (§1) Additionally, Estrogen RBA was determined by relative binding (Estradiol=100) to estrogen receptor from immature female rat uterus, while Estrogenic Activity was determined by subcutaneous administration to immature female rats (Estradiol=100).
# [3] = biological target: T2, estrogen receptor from immature female rat uterus (Rattus norvegicus, UniProt P06211); experiment: Estrogen RBA: relative binding to estrogen receptor; conditions: Estradiol = 100
# T2 construct: estrogen receptor from immature female rat uterus; from tissue; host or cells: immature female rat uterus
# T2 sequence (P06211 1-600): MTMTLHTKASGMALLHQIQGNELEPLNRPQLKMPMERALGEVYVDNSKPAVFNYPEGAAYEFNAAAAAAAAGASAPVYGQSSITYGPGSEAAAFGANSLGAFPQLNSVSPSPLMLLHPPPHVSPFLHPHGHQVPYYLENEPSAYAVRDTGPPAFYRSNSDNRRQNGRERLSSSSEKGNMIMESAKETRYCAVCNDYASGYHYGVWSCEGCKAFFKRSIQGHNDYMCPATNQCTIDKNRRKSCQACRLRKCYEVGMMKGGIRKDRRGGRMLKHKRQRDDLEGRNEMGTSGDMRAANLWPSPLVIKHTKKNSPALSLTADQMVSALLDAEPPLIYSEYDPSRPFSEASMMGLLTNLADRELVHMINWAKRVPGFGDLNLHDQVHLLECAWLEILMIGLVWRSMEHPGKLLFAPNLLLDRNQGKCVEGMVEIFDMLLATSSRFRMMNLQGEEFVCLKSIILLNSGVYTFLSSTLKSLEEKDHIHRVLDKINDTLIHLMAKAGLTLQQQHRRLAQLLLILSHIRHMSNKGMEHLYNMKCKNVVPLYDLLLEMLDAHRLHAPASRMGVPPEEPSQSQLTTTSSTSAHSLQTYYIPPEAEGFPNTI
# Experimental: as §1
SMILES,"Final Body Weight (% change from control) (Male Rats; 0.6 mg, week 1 after dose)","Seminal Vesicle Weight (% change from control) (Male Rats; 0.6 mg, week 1 after dose)","Ventral Prostate Weight (% change from control) (Male Rats; 0.6 mg, week 1 after dose)","Final Body Weight (% change from control) (Male Rats; 0.6 mg, week 2 after dose)","Seminal Vesicle Weight (% change from control) (Male Rats; 0.6 mg, week 2 after dose)","Ventral Prostate Weight (% change from control) (Male Rats; 0.6 mg, week 2 after dose)","Final Body Weight (% change from control) (Male Rats; 0.6 mg, week 4 after dose)","Seminal Vesicle Weight (% change from control) (Male Rats; 0.6 mg, week 4 after dose)","Ventral Prostate Weight (% change from control) (Male Rats; 0.6 mg, week 4 after dose)","Final Body Weight (% change from control) (Male Rats; 0.6 mg, week 6 after dose)","Seminal Vesicle Weight (% change from control) (Male Rats; 0.6 mg, week 6 after dose)","Ventral Prostate Weight (% change from control) (Male Rats; 0.6 mg, week 6 after dose)","Final Body Weight (% change from control) (Male Rats; 0.6 mg, week 8 after dose)","Seminal Vesicle Weight (% change from control) (Male Rats; 0.6 mg, week 8 after dose)","Ventral Prostate Weight (% change from control) (Male Rats; 0.6 mg, week 8 after dose)","Final Body Weight (% change from control) (Male Rats; 0.6 mg, week 10 after dose)","Seminal Vesicle Weight (% change from control) (Male Rats; 0.6 mg, week 10 after dose)","Ventral Prostate Weight (% change from control) (Male Rats; 0.6 mg, week 10 after dose)","Androgenic Activity, Seminal Vesicles [2]","Androgenic Activity, Ventral Prostate [2]",further results
"CCCCCCC(=O)O[C@H]1CC[C@H]2[C@H]3[C@H]([C@@H](C)C[C@]12C)[C@H]1CCC(=O)C=C1C[C@H]3C [RTI 147-029, 7α,11β-dimethyl-17β-heptanoyloxyestr-4-en-3-one]",15%,968%,628%,6%,1428%,778%,1%,1222%,1145%,0%,1777%,1810%,−16%,1044%,858%,1%,924%,749%,,,"Final Body Weight (% change from control) (Male Rats; 0.3 mg, week 1 after dose): 9%; Seminal Vesicle Weight (% change from control) (Male Rats; 0.3 mg, week 1 after dose): 571%; Ventral Prostate Weight (% change from control) (Male Rats; 0.3 mg, week 1 after dose): 368%; Final Body Weight (% change from control) (Male Rats; 0.3 mg, week 2 after dose): 1%; Seminal Vesicle Weight (% change from control) (Male Rats; 0.3 mg, week 2 after dose): 580%; Ventral Prostate Weight (% change from control) (Male Rats; 0.3 mg, week 2 after dose): 582%; Final Body Weight (% change from control) (Male Rats; 0.3 mg, week 4 after dose): 3%; Seminal Vesicle Weight (% change from control) (Male Rats; 0.3 mg, week 4 after dose): 438%; Ventral Prostate Weight (% change from control) (Male Rats; 0.3 mg, week 4 after dose): 583%; Final Body Weight (% change from control) (Male Rats; 0.3 mg, week 6 after dose): −1%; Seminal Vesicle Weight (% change from control) (Male Rats; 0.3 mg, week 6 after dose): 603%; Ventral Prostate Weight (% change from control) (Male Rats; 0.3 mg, week 6 after dose): 649%; Final Body Weight (% change from control) (Male Rats; 0.3 mg, week 8 after dose): −10%; Seminal Vesicle Weight (% change from control) (Male Rats; 0.3 mg, week 8 after dose): 312%; Ventral Prostate Weight (% change from control) (Male Rats; 0.3 mg, week 8 after dose): 340%; Final Body Weight (% change from control) (Male Rats; 0.3 mg, week 10 after dose): −2%; Seminal Vesicle Weight (% change from control) (Male Rats; 0.3 mg, week 10 after dose): 426%; Ventral Prostate Weight (% change from control) (Male Rats; 0.3 mg, week 10 after dose): 562%; potency and duration of action as compared with testosterone enanthate (Male Rats; in words, refers to Table 2): greater potency and longer duration of action"
"C[C@@H]1CC2=CC(=O)CC[C@@H]2[C@@H]2[C@@H]1[C@@H]1CC[C@H](O)[C@@]1(C)C[C@@H]2C [RTI 1176-012, 7α,11β-dimethyl-17β-hydroxyestr-4-en-3-one]",,,,,,,,,,,,,,,,,,,1540,1480,"Androgen RBA [1]: 194; melting point: 149 to 151 °C; acute androgenic activity as compared with 7α-methyl-19-nortesterone ([2]; in words, refers to Table 1): marked increase in acute androgenic activity; Androgenic Activity, Levator Ani [2]: 3800; Estrogenic Activity (immature female rats): 0.8; Estrogen RBA [3]: 0.6"
"C[C@@H]1CC2=CC(=O)CC[C@@H]2[C@H]2CC[C@]3(C)[C@@H](O)CC[C@H]3[C@@H]21 [RTI 1176-024, 7α-methyl-19-nortestosterone]",,,,,,,,,,,,,,,,,,,790,609,"Androgenic Activity, Levator Ani [2]: 2510"
"C[C@@H]1C[C@H]2CC(=O)CC[C@@H]2[C@@H]2[C@@H]1[C@@H]1CC[C@H](O)[C@@]1(C)C[C@@H]2C [RTI 1471-032, 7α,11β-dimethyl-17β-hydroxy-5α-estran-3-one]",,,,,,,,,,,,,,,,,,,377,742,Estrogenic Activity (immature female rats): 0.7
"C=C1C[C@]2(C)[C@@H](O)CC[C@H]2[C@H]2[C@H]1[C@H]1CCC(=O)C=C1C[C@H]2C [RTI 1471-034, 17β-Hydroxy-7α-methyl-11-methyleneestr-4-en-3-one]",,,,,,,,,,,,,,,,,,,993,1519-2148,Androgen RBA [1]: 176
"CCCCCCC(=O)O[C@H]1CC[C@H]2[C@@H]3CCC4=CC(=O)CC[C@]4(C)[C@H]3CC[C@]12C [Testosterone enanthate, reference compound]",0%,452%,409%,6%,318%,339%,−7%,281%,291%,0%,248%,405%,6%,187%,150%,0%,179%,130%,,,

# From patent US6369047B2, “Androgenic steroid compounds and a method of making and using the same” (Research Triangle Institute, priority 1997, dated 2002)
